We go through 1 compound from US20240374879A1, “METHODS AND COMPOSITIONS TO REDUCE CELLULAR DEPOSITION, AND HYDROCEPHALUS SHUNT FAILURE” (Wayne State University, priority 2021, published 2024).

Series [1] is described as follows: Solubility of GIT 27. In kind it is physicochemical.
Series [2] concerns macrophage toll-like receptor (TLR) 4 and TLR 2/6 signaling pathway. Particulars: cited from earlier work.
Series [3] deals with Human astrocyte cells. Nature of the series: Cell counts of human astrocytes cultured on PDMS discs, GIT 27 as pre-, simultaneous or post-treatment. To be noted: for number of cells compared to associated control: vs control; for % Change of average Cell Counts, GIT 27 vs DMSO treated vehicle: GIT 27 1000 μg/mL. In kind it is cell-based. The protocol: PDMS Catheter Creation: Catheter samples were made by creating a polydimethylsiloxane (PDMS, silicone) solution, Sylgard 184 (Dow Corning), at a ratio of 10:1 elastomer to curing agent. This solution was then homogenized and placed into a degasser to remove bubbles. Once all the air bubbles were removed, 200 μL of the PDMS solution was pipetted into a 24 well plate to create flat disk samples for cell culturing. These samples were then degassed again to ensure were no bubbles in the disks and left for 48 hours to cure on a flat substrate.
Media Creation: A media stock solution was created by combining astrocyte media (ScienCell), supplement kit, 10 mL fetal bovine serum (FBS), 5 mL penicillin/streptomycin, and 5 mL astrocyte growth serum (ScienCell), and an additional 10 mL FBS (ScienCell). IL-1β and IL-10 were diluted to a concentration of 50,000 ng/mL and 100,000 ng/mL, respectively, in phosphate buffer solution (PBS, w/v). GIT 27 was dissolved in a dimethyl sulfoxide (DMSO) vehicle (Sigma-Aldrich) to a concentration of 20 mg/mL (w/v).
Media solutions for the different groups were made directly before each media change. Cytokines IL-1β or IL-10 were added to the media stock solution for a final concentration of 14.67 ng/mL. GIT 27 was added for a concentration of 1000 μg/mL in the media stock solution for our experimental group. […] Our vehicle group contained 50 μL/mL DMSO alone, which is proportional to the amount in the GIT 27 treated group. Concentrations were then made for evaluation of dose and time dependency (FIGS. 6A-6F).
Cell Culture: Human astrocyte cells were initially grown in T75 flasks with media changes every three days using basic astrocyte media and washed with Hanks Balanced Salt Solution without Calcium and Magnesium (Gibco). Once the flasks came to confluency, the cells were trypsinized using Trypsin-EDTA at 0.25% (Gibco) and seeded at a seeding density of 250,000 cells per well. These samples were broken up into three treatment groups: control, DMSO, and GIT 27 tested as a pre-treatment, simultaneous treatment, and post-treatment (FIGS. 6A-6F). Each group and treatment time were then either exposed to IL-1β or IL-10 separately at concentrations described for media creation.
Cell Count Collection: Images were taking using a microscope (Fisher Scientific) and microscope attachable digital camera following each media change on days 1, 5, 7, 9, 12, and 14. These images were taken at approximately the center of each 24 well plate well with an area of 5.9788 mm^2. Counts were obtained using the FIJI software by converting the images to 32-bit. Contrast was enhanced to the value of 0.5 and background was subtracted to a value of 10. Finally, the threshold was set to 23-70 to obtain the cell count of each image.
Statistical Analysis: Three conditions were tested in this experiment, treatment group, treatment time, and IL B or IL10 exposure, with a total of 16 different samples tested with an n=five of replicates. The three treatment groups tested were a control, vehicle control (DMSO), and GIT 27 (G27). Each treatment group was tested as a pre-treatment (denoted Pre-), dose simultaneous to treatment (denoted Sim-), and post-treatment (denoted Post-) as time points with respect to shunt insertion represented by exposure to either IL-1β (IL1B) or IL-10 (IL10). Utilizing the abbreviations described here we combined these to allow for an easier understand of the results presented. An example of this can be control Pre-IL1B, DMSO Pre-IL1B, and G27 Pre-IL1B which represents the three treatment groups when used as a pre-treatment to IL-1β exposure.

The test system of series [4] is Human astrocyte cells. Put plainly: Delivery Method: immunofluorescence (DAPI, GFAP) of astrocytes, GIT 27 attached to PDMS or in suspension. In kind it is cell-based. The protocol:
Delivery Method: Following the nanodrop experiment, it was determined that the minimum concentration necessary to attach GIT 27 to the surface of the PDMS was 1000 μg/mL to display any attachment and release from the catheter. […] Using this concentration for sufficient surface coating, human astrocyte cells were cultured onto PDMS discs coated with GIT 27. Samples were also tested by adding GIT 27 at various concentrations in suspension within the cell culture media. Attached GIT 27 samples were conducted at concentrations 1000 and 3000 μg/mL, and for the in suspension concentrations 5, 50, and 1000 μg/mL in astrocyte media were used.
Immunofluorescence was performed using glial fibrillary acidic protein (GFAP) and 4′,6-diamidino-2-phenylindole (DAPI) solution (ThermoFisher). GFAP primary and secondaries were diluted to a ratio of 1:1000 and 5:1000, respectfully, in 0.4% Triton-X in PBS (w/v). Samples were incubated for 24 hours in each solution. After rinsing the samples with PBS, the samples were incubated in a 1:1000 DAPI solution in 0.4% Triton X solution for 30 minutes. Samples were then imaged submerged in PBS using a confocal microscope at 20× magnification and analyzed using Imaris software.

Setting [5] is: 1000 μg/mL GIT 27 in suspension, qualitative.

Consider `O=C(O)CC1CC(c2ccccc2)=NO1` (stereo not shown) [GIT 27, 4,5-Dihydro-3-phenyl-5-isoxazoleacetic acid], for which the solubility entry in series [1] is on record as “only soluble in DMSO”. Further, the “secretion of pro-inflammatory cytokines IL-1β, IL-10 and IFN-γ” value in series [2] is “reduces”. Also, the TNF-α secretion entry in series [2] (macrophages) is listed as “inhibits”. The “cell count by treatment time” value in series [3] (G27 Pre-IL1B compared to G27 Post-IL1B) is reported as “significantly fewer”; in series [3] (G27 Pre-IL1B compared to Sim-IL1B), “insignificantly less”; in series [3] (G27 Pre-IL10 compared to G27 Post-IL10) it was “significantly fewer”; in series [3] (G27 Sim-IL10 compared to G27 Post-IL10), “significantly lower”. In addition, the “number of cells compared to associated control” value in series [3] (Post-IL1B) and in series [3] (Sim-IL1B) was “not significantly different” in each case. The “cell count, difference between the three treatment groups” value in series [3] (Post-IL10) and in series [3] (Sim-IL10) was “no effect” throughout. Further, the “% Change of average Cell Counts, GIT 27 vs DMSO treated vehicle” value in series [3] (Post-Treatment (C), exposed to IL-1β) is on record as 94.25%; in series [3] (Post-Treatment (C), exposed to IL-10), −9.74%; in series [3] (Pre-Treatment (A), exposed to IL-1β) it was −15.09%; in series [3] (Pre-Treatment (A), exposed to IL-10) it was 22.97%; in series [3] (Simultaneous Treatment (B), exposed to IL-1β), 50.87%; in series [3] (Simultaneous Treatment (B), exposed to IL-10) it was −5.50%. Besides, the “cell count compared to DMSO” value in series [3] (Pre-IL1B, vs DMSO Pre-IL1B) is reported as “insignificantly lower”. In addition, in series [3] (Pre-IL1B, vs control Pre-IL1B), the “cell count compared to control” value is recorded as “significantly lower”. In addition, the “astrocyte cell bodies (GFAP) labeling compared to all other groups” value in series [4] (setting [5]) is “lowest amount”. For the same compound, the “immunofluorescent total cell count (DAPI) labeling compared to all other groups” value in series [4] (setting [5]) is given as “lowest amount”. In series [4] (plasma etched samples with GIT 27 attached to the surface), the “GFAP levels compared to controls with no GIT 27 exposure” value is given as “increased levels”.
